This is an account of results in article PMC11054337, “Identification of Leishmania donovani PEX5-PTS1 Interaction Inhibitors through Fluorescence Polarization-Based High-Throughput Screening” (Molecules, 2024).

“And” between values parts separate entries of the source, which are not always exact repeats. Identical values can stand only once. Like-named read-outs stand apart in the source and are kept apart here. No end group written: not given here.

Test [1] addresses T1, LdPEX5-PTS1 interaction (Leishmania donovani, UniProt A0A3S7X906).
T1 construct: encoding LdPEX5CT, corresponding to 322 amino acids (AF198051.1: 303-625), was synthesized; 6xHis (pET15b) (N); made in house; host or cells: Escherichia coli BL21 (DE3)
Nature of the test: biochemical. It is filed as binding. The conditions noted are these: 1 µM LdPEX5, 5 nM FITC-SGAGSKL. The method, then:
HTS using FP was conducted to identify inhibitors of the LdPEX5-PTS1 interaction. The screening utilized an in-house compound library comprising 51,406 compounds with diverse structural profiles. All compounds were initially solubilized in 100% DMSO with a concentration of 2 mM, and the final testing concentration in the assay was set at 20 μM. DMSO served as the negative control, while unlabeled PTS1 peptide (TRYPAKL) was used as the positive control. The assay mixture included FITC-SGAGSKL peptide and LdPEX5 at final concentrations of 5 nM and 1 μM, respectively. The reaction plates with compounds were incubated for 1 h at room temperature before FP signal detection. Single-point inhibition assays were performed, and the Z’ factor was employed to assess the quality of the assay. The Z’ factor was calculated using the formula Z′ = 1 − 3(σp + σn)/(μp − μn), where σp and σn are the standard deviations of the positive and negative controls, respectively, and μp and μn represent their respective mean values.
(§1) All half-maximal inhibitory concentration (IC50) values were determined based on data obtained from three independent experiments. The dose–response curves were generated and analyzed using GraphPad Prism 6 software (GraphPad Software, San Diego, CA, USA). For the analysis, a sigmoidal dose–response equation was employed, incorporating a variable hill slope option.

Test [2] has as its system L. major promastigotes. The experiment in a line: L. major promastigote growth inhibition (resazurin). In kind it is cell-based, Leishmania major. The conditions noted are these: for IC50: 72 h exposure, three independent replicates, read-out: L. major IC50 ± SD. The method, then:
(§2) All the restriction enzymes used in this study were sourced from New England BioLabs (240 County Road Ipswich, Ipswich, MA, USA). The PTS1 peptides, both unlabeled and fluorescently labeled at the N-terminus with fluorescein isothiocyanate (FITC), were purchased from Peptron (Daejeon, Republic of Korea). All the inhibitors were purchased from Enamine (Kyiv, Ukraine). L. donovani strain MHOM/SD/62/1S-CL2D and L. major strain LV39 (MRHO/Sv/59/P) were cultured in their extracellular promastigote forms. The parasite was cultured at 28 °C using M199 medium (Sigma-Aldrich, St. Louis, MO, USA) supplemented with 40 mM HEPES, 0.1 mM adenine, 0.0001% biotin, and 4.62 mM NaHCO3, along with additional supplements of hemin and xanthine. The T. brucei brucei Lister strain 427 in its bloodstream form (BSF) was cultured at 37 °C in a controlled atmosphere consisting of 5% CO2 in HMI-9 medium enriched with 10% fetal bovine serum (FBS), 100 µg/mL penicillin, and 100 µg/mL streptomycin. The parasites were maintained through only 10 passages for this study.
(§3) Briefly, the assays were conducted in 384-well plates, each well was seeded with 5 × 10^4 parasites, and the compounds were exposed for 72 h. The compounds were tested in dose-diluted format, starting from 100 μM with a two-fold dilution across 10 points. Subsequently, resazurin was added to each well to achieve a final concentration of 200 μM. The plates were then incubated for an additional 5 h before fixation. The assay results were recorded using a Victor3 plate reader (PerkinElmer, Shelton, CT, USA). For the assessment against L. donovani intracellular amastigotes, phorbol 12-myristate 13-acetate-treated THP-1 cells were seeded at 0.8 × 10^4 cells per well in a 384-well plate in RPMI-1640 complete medium supplemented with 10% FBS. After 48 h, the infection was carried out using L. donovani promastigotes with a multiplicity of infection of 10:1. The infected cells were treated with compounds for 72 h, then the cells and parasites were washed, stained with 5 µM 4′,6-diamidino-2-phenylindole (DAPI), and fixed with 4% paraformaldehyde. Images were acquired using Operetta® CLS™ (PerkinElmer, Shelton, CT, USA), and the numbers of parasites and host cells were quantified using Columbus™ software version 2.8 (PerkinElmer, Shelton, CT, USA).
as §1

In test [3] the test system is L. donovani promastigotes. Nature of the test: L. donovani promastigote growth inhibition (resazurin). It is filed as cell-based, Leishmania donovani. The conditions noted are these: for IC50: 72 h exposure, three independent replicates, read-out: L. donovani IC50 ± SD. Here is the method: as §2, §3, §1
Test [4] relates to T. brucei BSF. The experiment in a line: T. brucei BSF growth inhibition (resazurin). In kind it is cell-based, Trypanosoma brucei. Conditions: for Growth inhibition of T. brucei (in words): BSF; for IC50: Trypanosoma brucei, blood stream form, 72 h exposure, three independent replicates, read-out: T. brucei IC50 ± SD. Here is the method: as §2, §3, §1
Test [5] has as its system L. donovani intracellular amastigotes. The experiment in a line: L. donovani intracellular amastigote assay in THP-1 cells (image-based). It is filed as cell-based, Leishmania donovani. The conditions noted are these: infected THP-1 cells, 72 h treatment. Here is the method: as §3
Where [6] appears, read: IC50 of unlabeled PTS1 peptides, peptide from 60 µM half dilution 10 points.
Setting [7] is: 1 h, three independent replicates, read-out: LdPEX5-PTS1 Inhibition IC50 ± SD.

T1 sequence (A0A3S7X906 entry or part of it): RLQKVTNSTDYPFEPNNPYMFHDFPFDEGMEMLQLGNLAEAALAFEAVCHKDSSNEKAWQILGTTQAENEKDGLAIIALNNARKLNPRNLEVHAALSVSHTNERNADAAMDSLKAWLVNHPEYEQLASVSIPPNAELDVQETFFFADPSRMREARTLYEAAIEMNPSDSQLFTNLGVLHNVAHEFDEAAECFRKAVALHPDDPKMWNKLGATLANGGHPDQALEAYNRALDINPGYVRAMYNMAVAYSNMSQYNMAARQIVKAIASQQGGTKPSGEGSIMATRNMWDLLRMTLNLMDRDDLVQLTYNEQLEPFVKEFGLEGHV

The compound SGAGSKL [SGAGSKL, reference compound] came in with an IC50 in test [1] (setting [6]) of 10.7 µM.
On to `CNc1ccc(Nc2ncnc3sccc23)cn1` [P20, N^2-methyl-N^5-(thieno [2,3-d]pyrimidin-4-yl)pyridine-2,5-diamine], for which, in test [2], the “Growth inhibition of L. major (in words)” value is “inhibitory activity”. Besides, the IC50 in test [2] came to 19.2 ± 2.65 µM; in test [2] (Leishmania major, 72 h) it was 12.2 ± 1.36 µM; in test [1] (setting [7]), 16.5 ± 0.79 µM; in test [3], 12.2 ± 1.36 µM; in test [3] (Leishmania donovani, 72 h), 19.2 ± 2.65 µM; in test [4], 3.06 ± 0.38 µM. Moreover, in test [3], the “Growth inhibition of L. donovani (in words)” value is “inhibitory activity”. Further, the “Growth inhibition of T. brucei (in words)” value in test [4] is “inhibitory activity”. In addition, the “Activity against intracellular amastigote form of Leishmania” value in test [5] is “inactive”.
For `C[C@@H]1[C@H](O)[C@@H](C)/C=C/C=C/C=C/C=C/C=C/C=C/C=C/[C@H](O[C@@H]2O[C@H](C)[C@@H](O)[C@H](N)[C@@H]2O)C[C@@H]2O[C@](O)(C[C@@H](O)C[C@@H](O)[C@H](O)CC[C@@H](O)C[C@@H](O)CC(=O)O[C@H]1C)C[C@H](O)[C@H]2C(=O)O` [Amphotericin B, reference compound], in test [3] (Leishmania donovani, 72 h), the IC50 is 0.42 ± 0.03 µM.
`CCCCCCCCCCCCCCCCOP(=O)([O-])OCC[N+](C)(C)C` [Miltefosine, reference compound]: the IC50 in test [2] (Leishmania major, 72 h) stood at 7.37 ± 1.67 µM.
With `CCOc1ccc(NC2CCN(Cc3cscn3)CC2)cn1` [P28], the IC50 is over 50 µM in test [2] (Leishmania major, 72 h); 16 ± 0.96 µM in test [1] (setting [7]); over 50 µM in test [3] (Leishmania donovani, 72 h); over 50 µM in test [4].
With `N=C(N)c1ccc(OCCCCCOc2ccc(C(=N)N)cc2)cc1` [Pentamidine, reference compound], the IC50 in test [4] stood at 0.69 ± 0.05 µM.
In test [1] (setting [6]), ARLASKV [ARLASKV, reference compound] displayed an IC50 of over 60 µM.
Regarding `O=C(Nc1nc2ccccc2nc1N1CCCC1)c1ccc(Cn2cccn2)cc1` [P10, 4-((1H-pyrazol-1-yl)methyl)-N-(3-(pyrrolidin-1-yl)quinoxalin-2-yl)], the “Growth inhibition of L. major (in words)” value in test [2] was “not active”. The IC50 in test [2] (Leishmania major, 72 h) was over 50 µM; in test [1] (setting [7]), ~16 µM and 16.2 µM; in test [3] (Leishmania donovani, 72 h) it was 3.3 ± 0.23 µM; in test [4], over 50 µM. Further, the “Growth inhibition of T. brucei (in words)” value in test [4] was “not active”. Also, the “Activity against intracellular amastigote form of Leishmania” value in test [5] is “inactive”.
In the case of `CCc1ncc2c(n1)CN(Cc1cc(=O)n3cccc(C)c3n1)CC2` [P21], the IC50 in test [2] (Leishmania major, 72 h) was over 50 µM; in test [1] (setting [7]), 24.5 ± 1.05 µM; in test [3] (Leishmania donovani, 72 h), over 50 µM; in test [4], over 50 µM.
Regarding TRYPAKL [TRYPAKL, reference compound], the IC50 in test [1] (setting [6]) turned out to be 3.61 µM.
Turning to `COc1ccc(NC(=O)C2(S(=O)(=O)c3ccc(Cl)cc3)CCCC2)cn1` [P08, 1-((4-chlorophenyl)sulfonyl)-N-(6-methoxypyridin-3-yl)cyclopentane-1-carboxamide], the IC50 in test [2] (Leishmania major, 72 h) is over 50 µM; in test [1] (setting [7]), 3.89 ± 0.15 µM; in test [3] (Leishmania donovani, 72 h) it was over 50 µM; in test [4], over 50 µM.
Consider `CN(C)c1ccc(Nc2cnc3ccccc3n2)cn1` [P02], for which the IC50 was over 50 µM in test [2] (Leishmania major, 72 h); 23.6 ± 0.86 µM in test [1] (setting [7]); over 50 µM in test [3] (Leishmania donovani, 72 h); over 50 µM in test [4].
Take `Cc1ccc(C(=O)Nc2nc3ccccc3nc2N2CCCC2)cc1S(C)(=O)=O` [P16]: the “Growth inhibition of L. major (in words)” value in test [2] was “not able to inhibit the growth”. Further, the IC50 in test [2] (Leishmania major, 72 h) is over 50 µM; in test [1] (setting [7]), ~16 µM and 16.9 µM; in test [3] (Leishmania donovani, 72 h) it was over 50 µM; in test [4], over 50 µM. Further, in test [3], the “Growth inhibition of L. donovani (in words)” value is on record as “not able to inhibit the growth”. In addition, the “Growth inhibition of T. brucei (in words)” value in test [4] is listed as “not able to inhibit the growth”.
Turning to `Cn1ncc(-c2nc3cc(S(N)(=O)=O)ccc3[nH]2)n1` [P04, 2-(2-methyl-2H-1,2,3-triazol-4-yl)-1H-benzo[d]imidazole-5-sulfonamide], the IC50 in test [2] (Leishmania major, 72 h) was over 50 µM; in test [1] (setting [7]) it was 14.6 ± 0.76 µM; in test [3] (Leishmania donovani, 72 h), over 50 µM; in test [4], 12.1 ± 2.19 µM.
Take `Cc1cc(C(=O)Nc2cc(C(N)=O)ccc2N2CCCCC2)c2c(C)noc2n1` [P17]: the IC50 in test [2] (Leishmania major, 72 h) was over 50 µM; in test [1] (setting [7]), 25.2 ± 0.89 µM; in test [3] (Leishmania donovani, 72 h), over 50 µM; in test [4] it was over 50 µM.
